Test results taken from patent US20240002326A1, “COMPOUNDS AND USE THEREOF IN METHODS OF TREATMENT” (The University of Queensland, priority 2016, published 2024).

Key:
SOX18[109] HMG fragment = SOX18[109] HMG fragment (Mus musculus (Mouse), UniProt P43680); assay: FP DNA-binding competition assay, SOX18[109] HMG fragment; settings: for remaining activity at 50 µM / remaining activity at 200 µM: SOX18/DNA binding; for remaining activity at 50 µM: read-out: FP bound fraction (%) 50 μM; for remaining activity at 200 µM: read-out: FP bound fraction (%) 200 μM; for SOX18-DNA binding inhibition (FP, words): SAR library, SOX18[109]
Sequence of SOX18[109] HMG fragment (P43680 69-177): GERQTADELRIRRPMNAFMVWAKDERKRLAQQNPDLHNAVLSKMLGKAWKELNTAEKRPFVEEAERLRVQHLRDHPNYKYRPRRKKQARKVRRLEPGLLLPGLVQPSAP
Procedure: Mouse SOX HMG fragments. The HMG domains of mouse SOX2 (Group B), SOX11 (Group C), SOX6 (Group D), SOX9 (Group E), SOX18 (Group F) and SOX15 (Group G) were BP cloned from cDNA templates (IMAGE cDNA clone IDs: Sox18: 3967084; Sox9: 5354229; Sox4: 6822618) into a pDONRTM221 pENTRY vector, sequenced and recombined into a pETG20A or a pHisMBP expression plasmid using Gateway®LR Technology (Ng et al., 2012). Constructs were transformed into Escherichia coli BL21(DE3) cells (Luria-Bertani, 100 μg/ml Ampicillin).
(§1) The DNA-binding competition assay was performed in black 384-well plates, with mouse full length SOX18, or SOX-HMG fragments. All experiments were performed using a fluorescently-labelled Prox1-DNA element. Controls consisted of free labelled DNA (low FP milli-Polarization index, mP), labelled DNA in presence of protein (negative control, high mP), and labelled DNA and protein in presence of competing excess of unlabelled DNA (positive control, low mP)
(§2) The DNA-binding competition assay was performed in 25 uL, in black 384-well plates, using either 30 mM HEPES (N-2-Hydroxyethylpiperazine-N′-2-Ethanesulfonic Acid) (pH 7.5, with 100 mM KCl, 40 mM NaCl, 10 mM NH4OAc, […], 2 mM MgCl2, 0.5 mM EDTA, 0.01% NP-40) for mouse full length SOX18, or Tris-NaCl (10 mM Tris pH 8.0 and 100 mM NaCl) for SOX-HMG fragments. All experiments were performed using a 40 bp double-stranded Prox1-DNA element with 5′ fluorescein amidite (FAM) label (Sigma Proligo or InVitrogen). Optimum binding levels were obtained at 200 nM of mouse full length SOX18 and 60 nM of SOX-HMG fragment, in presence of 5 nM labelled DNA. Controls consisted of free labelled DNA (low FP milli-Polarization index, mP), labelled DNA in presence of protein (negative control, high mP), and labelled DNA and protein in presence of 400 time competing excess of unlabelled DNA (positive control, low mP). Depending on compound, final DMSO concentrations ranged from 2 to 3.33% v/v. After mixing protein, DNA probe and compound, plates were sealed and briskly agitated in the dark for 5 minutes at room temperature, 10 minutes at 37° C., and 30 minutes at room temperature, before reading fluorescence polarization on a Tecan M1000Pro (λexc=485 nm, λem=525 nm). All experiments were performed in triplicates.
In order to pinpoint the possible binding site of the small molecules, the FP assays were repeated with a shorter, DNA-binding centred protein fragment. The DNA binding domain of SOX TFs consists of the […] amino acid long High Mobility Group (HMG) box. The 109 amino-acid long SOX18 fragment (SOX18[109]) corresponds to residues 69-177 (numbering by mouse SOX18), which includes the HMG box (residues 78-149) and N- and C-terminal flanking sequences of 9 and 28 amino-acids, respectively.

[1] = Cytotoxicity assay (Alamar blue), HEK293; assay type: cell-based; settings: human, HEK293 cells; HEK293, 24 h
Procedure: Cell toxicity was determined using Alamar blue, as previously described (McMillian et al., 2002). COS-7 cells were seeded as 7000 cells per well in black wall clear bottom 96-well plates in DMEM medium (Life Technologies Australia) with 10% FBS. HepG2 and HEK293 cell lines, from ATCC, were seeded as 5000 cells per well in black wall clear bottom 384-well cell culture plates in DMEM with 1% FBS. Cells were cultured for 24 h at 37° C., 5% CO2. A serial dilution of compounds was added, with a final DMSO concentration adjusted to 0.5% v/v. Cells were incubated for another 24 h. 1 Triton X-100 was used as negative control, and 0.5% DMSO as positive control. 5 μM Alamar blue was added to each well and fluorescence was measured (λexc=560 nm, λem=590 nm) after 2 h incubation at 37° C. Data were analysed using Prism software.

[2] = Cytotoxicity assay (Alamar blue), HepG2; assay type: cell-based; settings: human, HepG2 cells; HepG2, 24 h
full-length mouse SOX18 = full-length mouse SOX18 (Mus musculus (Mouse), UniProt P43680); assay: FP DNA-binding competition assay, full-length SOX18; settings: full-length mouse SOX18, Prox1-DNA probe; for IC50: read-out: FP IC50 ± SD
Sequence of full-length mouse SOX18 (P43680 whole entry): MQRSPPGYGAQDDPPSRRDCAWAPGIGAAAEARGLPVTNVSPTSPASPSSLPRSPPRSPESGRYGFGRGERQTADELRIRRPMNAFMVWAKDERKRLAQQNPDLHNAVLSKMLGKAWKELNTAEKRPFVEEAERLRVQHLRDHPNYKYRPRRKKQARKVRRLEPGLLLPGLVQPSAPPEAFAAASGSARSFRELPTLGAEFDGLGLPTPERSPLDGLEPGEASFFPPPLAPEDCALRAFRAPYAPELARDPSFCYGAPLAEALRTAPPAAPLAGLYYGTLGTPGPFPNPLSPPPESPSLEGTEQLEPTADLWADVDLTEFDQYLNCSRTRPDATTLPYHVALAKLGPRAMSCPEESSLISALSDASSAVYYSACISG
Procedure: Full-length mouse SOX18. A N-terminally tagged mouse HIS-GST-SOX18 was recombinantly expressed in Sf9 cells, purified on GST resin (GE Healthcare Life Sciences, Sweden) and eluted in Tris buffer (50 mM Tris, 500 mM NaCl, 10 mM reduced glutathione, pH 8.0). cDNA clone of mouse Sox18 was PCR amplified and cloned into the pOPIN-GST vector, to generate N-terminally tagged HIS-GST-SOX18. A sequence verified construct was co-transfected with flashBACULTRA (Oxford Expression Technologies, Oxford, United Kingdom) baculovirus DNA onto Spodoptera frugiperda Sf9 cells to obtain recombinantly expressed HIS-GST-SOX18. High Five cells (BTI-TN-5B1-4) in Sf-900™ II serum-free medium were infected at cell density of 1.5×10^6 cells/mL with a multiplicity of infection (MOI) of 5 PFU/cell, and incubated at 21° C. for 144 h before harvest. The cell pellet from 100 mL of expression culture was resuspended in 30 mL of phosphate lysis buffer (50 mM sodium phosphate, 500 mM sodium chloride, 1% Triton X-100, 2 mM magnesium chloride, one tablet of cOmplete Protease Inhibitor Cocktail, pH 7.5) and sonicated on ice for 20 s. The cell lysate was centrifuged at 17,000×g for 40 min at 4° C. Supernatant was incubated with Benzonase Nuclease (Merck Millipore) for 1 h at room temperature for DNA degradation, before being mixed with 500 μL GST resin (GE Healthcare Life Sciences, Sweden) and incubated on a rotating wheel at room temperature for 1 h. The sample was centrifuged at 500×g for 1 min to remove unbound protein in the supernatant. The resin was further washed with 50 resin volumes (RV) wash buffer (50 mM sodium phosphate, 500 mM NaCl, pH 7.5), with unbound protein removed by centrifugation as above. Bound protein was eluted from the resin with 3×1 RV elution buffer (50 mM Tris, 500 mM NaCl, 10 mM reduced glutathione, pH 8.0), collecting the supernatant by centrifugation as above.
as §1, §2

SMILES	remaining activity at 50 µM (SOX18[109] HMG fragment) [%]	remaining activity at 200 µM (SOX18[109] HMG fragment) [%]	FP IC50 ± SD (full-length mouse SOX18)	IC50 (full-length mouse SOX18) [µM]	SOX18-DNA binding inhibition (FP, words) (SOX18[109] HMG fragment)	CC50 at 24 h [1] [µM]	CC50 at 24 h [2] [µM]
CCN(CC)C(=O)c1c(/C=C\c2ccc3ccccc3c2)cccc1OC [Sm15, (Z)-N,N-diethyl-2-methoxy-6-(2-(naphthalen-2-yl)vinyl)benzamide]	103 ± 7.4	121 ± 4.7				> 100	
CCCCCCCCCCCc1cccc(O)c1C(=O)O [Sm1, 6-undecyl salicylic acid]			high micromolar range	348 ± 1.1			
COc1cc(CCc2ccccc2)cc(OC)c1OC [Sm39, 1,2,3-trimethoxy-5-phenethylbenzene]	102 ± 9.7	117 ± 8.1				> 100	> 100
CCN(CC)C(=O)c1c(/C=C/c2ccc3ccccc3c2)cccc1OC [Sm16, (E)-N,N-diethyl-2-methoxy-6-(2-(naphthalene-2-yl)vinyl)benzamide]	99.3 ± 6.2	109 ± 4.9				> 100	
COc1cc(/C=C/c2ccccc2)cc(OC)c1OC [Sm38, (E)-1,2,3-trimethoxy-5-styrylbenzene]	102 ± 11.2	120 ± 6.6				> 100	> 100
O=C(O)c1c(O)cccc1/C=C/c1ccccc1 [Sm21, (E)-2-hydroxy-6-styrylbenzoic acid]	103 ± 8.8	98.1 ± 2.1				> 100	> 100
CCCCCCCCCCCCCc1cccc(O)c1C(=O)O [Sm2, 6-tridecyl salicylic acid]			high micromolar range	341 ± 1.1			
O=C(O)c1c(O)cccc1CCc1ccccc1 [Sm22, 2-hydroxy-6-phenethylbenzoic acid]	98.1 ± 6.1	93.1 ± 9.5			completely eliminated all activity	> 100	> 100

Further lines, with some results ahead:

remaining activity at 50 µM (SOX18[109] HMG fragment) [%]	remaining activity at 200 µM (SOX18[109] HMG fragment) [%]	FP IC50 ± SD (full-length mouse SOX18)	IC50 (full-length mouse SOX18) [µM]	SOX18-DNA binding inhibition (FP, words) (SOX18[109] HMG fragment)	SMILES	CC50 at 24 h [1] [µM]	CC50 at 24 h [2] [µM]
106 ± 9.5	113 ± 3.6				COc1cc(CCc2ccc3ccccc3c2)cc(OC)c1OC [Sm43, 2-(3,4,5-trimethoxyphenethyl)naphthalene]	> 100	> 100
10.9 ± 9.6	-3.9 ± 6.8				Cc1cc(O)c(C(=O)O)c(CCc2ccc3ccccc3c2)c1 [Sm36, 2-hydroxy-4-methyl-6-(2-(naphthalen-2-yl)ethyl)benzoic acid]	39.9	37.7
97 ± 6.1	92.8 ± 21.7				COc1cc(/C=C/c2ccc3ccccc3c2)c(C(=O)O)c(OC)c1 [Sm27, (E)-2,4-dimethoxy-6-(2-(naphthalen-2-yl)vinyl)benzoic acid]	> 100	> 100
3.9 ± 6	10.9 ± 5.2				O=C(O)c1c(O)cc(Cl)cc1/C=C/c1ccc2ccccc2c1 [Sm32, (E)-4-chloro-2-hydroxy-6-(2-(naphthalen-2-yl)vinyl)benzoic acid]	37.6	24
99 ± 7.6	109 ± 2.8				COc1cc(CCc2ccc3ccccc3c2)c(C(=O)O)c(OC)c1 [Sm30, 2,4-dimethoxy-6-(2-(naphthalen-2-yl)ethyl)benzoic acid]	> 100	> 100
-1.5 ± 3.5	-3.7 ± 7.9				Cc1cc(O)c(C(=O)O)c(/C=C/c2ccc3ccccc3c2)c1 [Sm35, (E)-2-hydroxy-4-methyl-6-(2-(naphthalen-2-yl)vinyl)benzoic acid]	52.2	30.3
108 ± 10.1	53.5 ± 9.6			not active	Oc1cc(CCc2ccc3ccccc3c2)cc(O)c1O [Sm44, 5-(2-(naphthalen-2-yl)ethyl)benzene-1,2,3-triol]	> 100	> 100
73 ± 1.9	2 ± 7.2				COc1cc(O)c(C(=O)O)c(CCc2ccc3ccccc3c2)c1 [Sm29, 2-hydroxy-4-methoxy-6-(2(naphthalen-2-yl)ethyl)benzoic acid]	64.4	71.2
